Assay results taken from patent EP1101496A1, “THERAPEUTIC AGENTS FOR ALLERGIC DISEASES” (FUJI YAKUHIN KOGYO KABUSHIKI KAISHA, priority 1998, dated 2000).

What was measured:
[1] = system: IgE-mediated auricle edema; test: Auricle edema in experimental atopic dermatitis model (anti-DNP IgE sensitization, DNFB elicitation); format: in vivo, Balb/c mice; conditions: Compound Nos. 8 and 10 60 mg/kg s.c., prednisolone 10 mg/kg i.p.
Procedure: Intravenous injection of an anti-2,4-dinitrophenol (DNP) antibody (anti-DNP Ab, monoclonal IgE Ab; its antibody titer was 1 : 512 to 1 : 1024 by a rat heterologous passive cutaneous anaphylaxis reaction using a Wister rat) into a tail vein of female Balb/c mice (7-week old, body weight: 17 to 20 g, purchased from JAPAN SLC, Inc.) at a dose of […] per animal raised passive sensitization. Twenty four hours post-sensitization, 0.1% 2,4-dinitrofluorobenzene (DNFB; Nacalai Tesque, Inc.) in ethanol was painted onto both sides of a pair of mouse auricles at a dose of 10 µL per each side for elicitation.
Fresh unsensitized mice were painted with 0.1% DNFB in ethanol onto their ear in the same manner as aforementioned and served as a control group. Not only immediately prior to elicitation but also 1 hour, 5 hours, daily between Days 1 and 14, and on Day 16 post-elicitation, ear thickness was measured using a dial thickness gauge (Peacock Co.). Each degree of auricle edemas was calculated: Auricular Edema (µm)=(Ear Thickness Post-Elicitation, µm) - (Ear Thickness immediately prior to Elicitation, µm) [formula]
Balb/c mice were passively sensitized with anti-DNP IgE Ab in the same manner as in Example 1. Twenty four hours later, 0.1% DNFB in ethanol was painted onto both sides of a pair of mouse auricles at a dose of 10 µL per each side for elicitation.
Immediately prior to elicitation, 1 hour and on Day 1 post-elicitation, auricle thickness was measured in the same manner as in Example 1. Each therapeutic efficacy is recorded as a percent inhibition wherein the "auricle edema (untreated group)" is used as a control. Auricle Edema Inhibition (%) = [ 1 -(Auricle Edema (Treated Group))/(Auricle Edema (Untreated Group))] × 100 (%) [formula]
(§1) Mice were sensitized with anti-DNP IgE Ab and then elicited by painting 0.1% DNFB in ethanol onto both sides of a pair of mouse auricles at a dose of 10 µL per each side 24 hours post-sensitization in the same manner as in Example 1. […] Immediately prior to elicitation, and on Day 7 post-elicitation, auricle thickness was similarly measured. Each therapeutic efficacy is recorded as a percent inhibition wherein the auricle edema in the untreated group is used as a control.
as §1, with “(untreated group)” for “in the untreated group”
Mice were sensitized with anti-DNP IgE Ab and then elicited by painting 0.1% DNFB in ethanol onto both sides of a pair of mouse auricles at a dose of 10 µL per each side 24 hours post-sensitization in the same manner as in Example 1. […] Immediately prior to elicitation, at 1 and 4 hours and on Days 1, 3 and 7 post-elicitation, auricle thickness was similarly measured. From each auricle edema (µm) based on the auricle thickness immediately prior to elicitation, especially a prophylactically therapeutic efficacy of the test compound was evaluated.
Mice were sensitized with anti-DNP IgE Ab and then elicited by painting 0.1% DNFB in ethanol onto both sides of a pair of mouse auricles at a dose of 10 µL per each side 24 hours post-sensitization in the same manner as in Example 1. A solution of a test metalloproteinase inhibitor (Compound No. 8; 50 µg/ear/dose, twice a day) in ethanol was painted onto both sides of a pair of the mouse auricles 1 hour pre-elicitation, 0.25, 3, 4, 5 and 6 days post-elicitation (5 animals per group). Immediately prior to elicitation, at 0.5, 1 and 4 hours and on Days 1, 3 and 7 post-elicitation, auricle thickness was similarly measured. Each amount of auricle edemas was calculated (average± standard deviation). […]

[2] = Mouse body weight gain (side-effect index); format: in vivo, mice; conditions: average ± standard deviation; once a day Days 0-5; Compound No. 8 or 10 60 mg/kg s.c., prednisolone 10 mg/kg i.p.
Procedure: Next the mice were measured for their body weight.

[3] = system: Experimental Bronchial Asthma Model; test: Experimental bronchial asthma model (ovalbumin-sensitized, airway resistance and asthmatic death); format: in vivo, Guinea pigs; conditions: for % Survival: asthmatic death within several minutes after elicitation
Procedure: Guinea pigs (female, Std:Hartley, 3 weeks old, 200 to 250 g) were individually housed in a plastic chamber (width, 200 mm; depth, 300 mm; height, 167 mm). Aqueous ovalbumin (10 mg/mL) was administered to the guinea pigs once a day for sensitization by 10 min. inhalation with a nebulizer (5B, Nippon Shoji K.K.: flow rate, 6 L/min.) at a dose of 10 mg/mL during 8 cosecutive days. On Day 7 after the final sensitization, the guinea pigs were housed in a plastic chamber and inhaled using a nebulizer with a solution of ovalbumin (10 mg/mL) in physiological saline for 1 min. for elicitation (Matsumoto, T., et al., The Journal of Pharmacology and Experimental Therapeutics, 269: 1236-1244, 1994). The number of animals employed in the experiment was set to the extent there are at least 6 as individuals escaping asthmatic death. A solution of a test metalloproteinase inhibitor (Compound No. 8, 15 mg/kg) in water for injection was administered subcutaneously twice, i.e., 24 hours and 2 hours prior to elicitation. Similarly, the solvent alone was also administered to a negative control group. A suspension of prednisolone (10 mg/kg) in 0.5% aqueous methyl cellulose was administered orally twice, i.e., 24 hours and 2 hours prior to elicitation. Similarly, the solvent alone was also administered to another control group.
The evaluation for efficacies was conducted in terms of airway resistance. For this purpose, an apparatus dedicated to the measurement of airway resistance (K.K. Medical Agent) was employed. Measurement includes setting a guinea pig in a test chamber under a not-anesthetized condition, applying sinusoidal pressure waves of 30 Hz components to a part below the neck of the animal from the back side of the chamber, measuring respiratory waves of 30 Hz components leaking through the mouth (volume of 30 Hz air flow passing through the respiratory tract) in front of the neck, and calculating airway resistance mechanically. Measurement was carried out immediately prior to the first drug treatment (24 hours before elicitation), just prior to elicitation, 10 minutes, 1, 2, 4, 6, and 8 hours post-elicitation.
It was visually observed by a person carrying out said test in terms of the appearance of cyanosis or suffocative death (asthmatic death) due to respiratory obstruction.
Guinea pigs were sensitized with ovalbumin and asthma was induced on Day 7 after final sensitization in the same manner as in Example 18. The number of animals employed in the experiment was set to the extent there are at least 6 as individuals escaping asthmatic death (8 to 11 animals/group). In the same manner as in Example 18, the animals were measured for airway resistance mechanically and each percent change (%) in airway resistance was calculated (each value just prior to elicitation was set as 100%). Each percent amelioration in airway resistance was calculated from the percent changes in airway resistance according to the following formula: Amelioration in Airway Resistance (%) = 1 -[((Percent Change in Airway Resistance after Drug-Administration)-(Value just prior to Challenge (100)))/((Percent Change in Airway Resistance after Solvent -Administration)-(Value just prior to Challenge (100)))]× 100 [formula]
A solution of a test metalloproteinase inhibitor (Compound No. 22: 15 mg/kg or 30 mg/kg) in water for injection or the solvent alone as a negative control was administered to each animal subcutaneously twice, i.e., 24 hours and 2 hours prior to elicitation.

[4] = Body weight gain in sensitized mice (experimental atopic dermatitis model); format: in vivo; conditions: painted on auricles twice a day; Compound No. 8 50 µg/ear/dose, prednisolone 5 µg/ear/dose; Days 1, 4 and 7; versus solvent control (ethanol)
Procedure: Experimental atopic dermatitis model mice sensitized in the same manner as in Example 1 were examined for influence on body weight gains.
A solution of a test metalloproteinase inhibitor (Compound No. 8; 50 µg/ear/dose, twice a day) in ethanol or a solution of prednisolone (5 µg/ear/dose, twice a day) in ethanol was administered to mice (5 animals per group) by painting onto both sides of a pair of the auricles, not only one hour prior to elicitation but also 0.25, 3, 4, 5 and 6 days post-elicitation. Each mouse was measured for its body weight not only immediately before the start in painting but also on Days 1, 4 and 7 after the start in painting. Each gain in body weight was calculated and considered to indicate an effect on body weight changes affected by said treatments.

[5] = Compound No. 22 15 mg/kg s.c., prednisolone 10 mg/kg orally
[6] = suffocative death due to cyanosis just after elicitation, Compound No. 8 15 mg/kg s.c., prednisolone 10 mg/kg orally, 24 and 2 hours prior to elicitation

With CC(=O)O.CNC(=O)[C@H](Cc1ccc(CNC(C)=N)cc1)NC(=O)[C@H](CC(C)C)C(CCCc1ccccc1)C(=O)NO (single isomer, unassigned) [Compound No. 10, N-[4-(N-hydroxyamino)-2(R)-isobutyl-3(R or S)-(3-phenyltrimethylene)succinyl]-L-4'-acetimidoyliminomethylenephenylalanine-N-methylamide 1 acetate] the “% Inhibition IPR” value ([1]; auricle edema 1 hour post-elicitation, treatment 24 & 2 hours prior to DNFB-elicitation) was 38.2%, the “% Inhibition LPR” value ([1]; auricle edema Day 1 post-elicitation, treatment 24 & 2 hours prior to DNFB-elicitation) was 39.2% and the “% Inhibition vLPR” value ([1]; auricle edema Day 7 post-elicitation, daily from 3 to 6 days after DNFB-elicitation) was 44.7%. For the same compound, the “Body Weight Gain, Day 5” value [2] was 1.08± 0.39, the “Body Weight Gain, Day 7” value [2] was 1.62± 0.26 and the “Body Weight Gain, Day 10” value [2] was 1.40± 0.30.

In the case of CC(=O)O.CNC(=O)[C@H](Cc1ccc(NC(=N)N)cc1)NC(=O)[C@@H](CC(=O)NO)CC(C)C [Compound No. 22, N-[4-(N-hydroxyamino)-2(R)-isobutylsuccinyl]-L-4'-guanidophenylalanine-N-methylamide 1 acetate], the “% Amelioration in Airway Resistance, 1 Hour” value ([3]; 1 hour after elicitation, Compound No. 22 15 mg/kg s.c., prednisolone 10 mg/kg orally) is reported as 56.4%, the “% Amelioration in Airway Resistance, 6 Hours” value ([3]; 6 hours after elicitation, Compound No. 22 15 mg/kg s.c., prednisolone 10 mg/kg orally) is reported as 102.2% and the “% Amelioration in Airway Resistance, Immediately after Elicitation” value ([3]; Compound No. 22 15 mg/kg s.c., prednisolone 10 mg/kg orally, 24 and 2 hours prior to elicitation) is reported as 12.3%. The cyanosis ([3]; after elicitation, s.c. administration) was “moderation in cyanosis is also observed” and the “% Survival” value [3, 5] was 88.9%.

With C[C@]12C=CC(=O)C=C1CC[C@@H]1[C@@H]2[C@@H](O)C[C@@]2(C)[C@H]1CC[C@]2(O)C(=O)CO [Prednisolone, prednisolone, reference compound] the “Body Weight Gain, Day 5” value [2] was 0.00± 0.26, the “Body Weight Gain, Day 7” value [2] was 0.03± 0.57 and the “Body Weight Gain, Day 10” value [2] was 0.97± 0.47. For the same compound, the “gain in body weight (FIG. 9)” value [4] was “below that in the solvent control group”, the “% Survival” value [3, 5] was 75.0% and the “% Mortality” value [3, 6] was 22.2%. For the same compound, the “(Dead Animals)/(Tested Animals)” value [3, 6] was 2/9.
